From PMC10031046, “Competition between FLS and DFR regulates the distribution of flavonols and proanthocyanidins in Rubus chingii Hu” (Frontiers in Plant Science, 2023)

Legend:
[1] = tested on: T1, RcDFR; assay: anthocyanidin formation after butanol-HCl, A530, Michaelis-Menten fit; format: biochemical, Rubus chingii; details: 1 mM NADPH, 0.1 M PBS pH 7.0, 30 °C, 1 h; kcat unit is 10^-3 s^-1
T1 construct: gene DFR; N-terminal MBP fusion (pMAL-c2X), E. coli BL21(DE3), amylose resin
Excerpt: anthocyanidin formation after butanol-HCl, A530, Michaelis-Menten fit on RcDFR

[2] = tested on: T2, RcFLS1; assay: HPLC product assay, Michaelis-Menten fit; format: biochemical, Rubus chingii; details: 100 mM Tris-HCl pH 7.5, 10 mM ascorbate, 10 μM FeSO4, 10 mM 2-oxoglutarate, catalase, 30 °C; kcat unit is 10^-3 s^-1
T2 construct: gene FLS1; N-terminal MBP fusion (pMAL-c2X), E. coli BL21(DE3), amylose resin
Excerpt: HPLC product assay, Michaelis-Menten fit on RcFLS1

| SMILES | Km [1] [µM] | Km [2] [µM] |
| --- | --- | --- |
| O=C1c2c(O)cc(O)cc2O[C@H](c2ccc(O)c(O)c2)[C@H]1O [DHQ, Dihydroquercetin] | 125 ± 11.4 | 56.9 ± 16.4 |
| O=C1C[C@@H](c2ccc(O)cc2)Oc2cc(O)cc(O)c21 [N, Naringenin] | – | 43.6 ± 14.6 |
| O=C1c2c(O)cc(O)cc2O[C@H](c2ccc(O)cc2)[C@H]1O [DHK, Dihydrokaempferol] | 47.2 ± 5.79 | 33.9 ± 8.66 |
| O=C1C[C@@H](c2ccc(O)c(O)c2)Oc2cc(O)cc(O)c21 [E, Eriodictyol] | – | 34.5 ± 9.34 |
